What was measured:
Assay type in all cases: cell-based
[1] = system: Aspergillus niger ATCC 9642 and Aspergillus flavus ATCC 9643; experiment: In vitro disk assay of antifungal properties, agar plates containing test agent (Example 3); conditions: 48 hours at 25° C.
Protocol: In this assay, paper disks were soaked in a fungal solution and placed on the surface of agar plates containing different concentration of the test agent. The radius of fungal growth radiating from each disk was considered indicative of the degree of inhibition by the agent relative to a control.
The test agents were diluted in DMSO or water and tested at several different concentrations. The test agents were added to the agar solution after sterilization, but prior to solidification. […] The plates were incubated for 48 hours at 25° C. The zones of fungal growth (or no growth) were analyzed and the minimum total inhibitory concentration (%) was estimated for each agent.

[2] = system: Aspergillus niger ATCC 9642, Aspergillus flavus ATCC 9643, and Chaetomium globosum ATCC 6205; experiment: ASTM D 2020 fungal resistance test of five biocides on treated glass fiber filter paper (Example 1); conditions: for Observed Fungal Growth after 14 Days incubation at 28° C., 1: replicate 1; for Observed Fungal Growth after 14 Days incubation at 28° C., 2: replicate 2; for Observed Fungal Growth after 14 Days incubation at 28° C., 3: replicate 3
Protocol: (§1) Five different biocides at varying concentrations were tested for fungal resistance using the ASTM D 2020 Standard Test Method for Mildew (Fungus) Resistance of Paper and Paperboard protocol. This test method was designed for the qualitative determination of mildew (fungus) resistance of paper and paperboard, particularly those types that have been given a fungus resistant treatment. Specific test conditions applied to this project are described below, but at all times the ASTM D 2020 test protocol was strictly followed.
All five biocides (Santoquin®, HMTBA-Cu, BIOX-AUSD, Tox-Guard*Dry, and Metasol-TK 100) were tested at three different concentrations (200, 400, and 600 ppm). Santoquin®, HMTBA-Cu, and BIOX-AUSD were diluted in dimethyl sulfoxide (DMSO), while Tox-Guard*Dry and Metasol-TK100 were diluted in water. DMSO was used a control diluent. The fungal inoculum was comprised of three different species: Aspergillus niger ATCC 9642, Aspergillus flavus ATCC 9643, and Chaetomium globosum ATCC 6205.
(§2) Glass fiber filter paper was treated with the individual test biocides at the respective concentrations listed in Table 1 and allowed to dry overnight. The filter paper carriers, tested in triplicate, were placed in Petri dishes on mineral salts agar and inoculated with the fungal inoculum. The samples were incubated at 28° C. for 2 weeks and examined daily during the first week of incubation for the growth of the test organisms.
(§3) If no growth was observed on a sample after the first week of incubation, the sample was incubated for an additional seven days. […] If, after two weeks, there was no detectable growth of test organisms, the sample was considered fungus resistant.

[3] = system: Aspergillus niger ATCC 9642, Aspergillus flavus ATCC 9643, and Chaetomium globosum ATCC 6205; experiment: ASTM D 2020 fungal resistance test of Santoquin with Kathon 893 as control biocide (Example 2); conditions: for Observed Fungal Growth after 14 Days incubation at 28° C.: replicates 1-3
Protocol: as §1, with “One biocide sample, labeled Santoquin® was” for “Five different biocides at varying concentrations were”
The Santoquin® biocide was diluted with DMSO and tested at two different concentrations: 0.1% and 1.0%. The biocide Kathon 893 was diluted to 0.1% and 1.0% in water and used as a control biocide. DMSO was used as a control diluent. The fungal inoculum was comprised of three different species: Aspergillus niger ATCC 9642, Aspergillus flavus ATCC 9643, and Chaetomium globosum ATCC 6205.
as §2, with “two different” for “the individual test biocides at the respective”, “(0.1% and 1.0%) of Santoquin®” for “listed in Table 1”
as §3

[4] = both concentrations (0.1% and 1.0%)
[5] = all three concentrations (200, 400, and 600 ppm)

Row | Compound | Minimum Total Inhibitory Concentration (%) [1] | fungal growth at the end of two weeks ([2]; 200 ppm) | fungal resistance classification in the ASTM D 2020 test ([2]; 200 ppm) | Observed Fungal Growth after 14 Days incubation at 28° C., 1 ([2]; 200 ppm) | Observed Fungal Growth after 14 Days incubation at 28° C., 2 ([2]; 200 ppm) | Observed Fungal Growth after 14 Days incubation at 28° C., 3 ([2]; 200 ppm) | fungal growth at the end of two weeks ([2]; 400 and 600 ppm) | fungal resistance classification in the ASTM D 2020 test ([2]; 400 and 600 ppm) | Observed Fungal Growth after 14 Days incubation at 28° C., 1 ([2]; 400 ppm) | Observed Fungal Growth after 14 Days incubation at 28° C., 2 ([2]; 400 ppm) | Observed Fungal Growth after 14 Days incubation at 28° C., 3 ([2]; 400 ppm) | Observed Fungal Growth after 14 Days incubation at 28° C., 1 ([2]; 600 ppm) | Observed Fungal Growth after 14 Days incubation at 28° C., 2 ([2]; 600 ppm) | Observed Fungal Growth after 14 Days incubation at 28° C., 3 ([2]; 600 ppm) | Observed Fungal Growth after 14 Days incubation at 28° C. ([3]; 0.1%) | Observed Fungal Growth after 14 Days incubation at 28° C. ([3]; 1.0%) | fungal growth at the end of the two weeks [3, 4] | fungal resistance classification in the ASTM D 2020 test [3, 4] | fungal growth at the end of the two weeks [2, 5] | fungal resistance classification in the ASTM D 2020 test [2, 5]
1 | CCOc1ccc2c(c1)C(C)=CC(C)(C)N2 [Santoquin, 6-ethoxy-1,2-dihydro-2,2,4-trimethylquinoline] | >0.5% | fungal growth | fungus non-resistant | Growth | Growth | Growth | no fungal growth | fungal resistant | No Growth | No Growth | No Growth | No Growth | No Growth | No Growth | No growth | No growth | no fungal growth | fungal resistant |  | 
2 | CSCCC(O)C(=O)[O-].CSCCC(O)C(=O)[O-].[Cu+2] (stereo not drawn) [Mintrex Cu, Cu(HMTBA)2] | 0.5% |  |  | Growth | Growth | Growth |  |  | Growth | Growth | Growth | Growth | Growth | Growth |  |  |  |  | fungal growth | fungus non-resistant

Source: patent US20070089847A1, “Anti-microbial paper products having a substituted 1,2-dihydroquinoline” (Novus International, Inc., priority 2005, published 2007)
